Measured values published in patent US4954509A, “Isoquinoline derivatives and their use as analgesics” (Dr. Lo. Zambeletti S.p.A., priority 1988, dated 1990).
Counter-ions that a name gives are not always drawn. Like-named read-outs stand apart in the source and are kept apart here.

Experiments:
mice [1] = assay: p-phenylquinone-induced abdominal writhing test in mice; assay type: in vivo, mouse (male Charles River, Swiss Strain); settings: Mus musculus, sc, 20 min; subcutaneous; calculated as the free base; 20 min pretreatment, p-phenylquinone 2 mg/Kg i.p.
Description: (A) P-phenylquinone-induced abdominal writhing test in mice
The methodology employed is based on that described by Sigmund et al, Proc. Soc. Exptl. Biol. 95, 729/1957, modified by Milne and Twomey, Agents and Actions, 10, 31/1980.
Male Charles River mice (Swiss Strain), 25-36g body weight, were used. Animals were allowed food and water ad libitum and were randomized into groups of 10 prior to experimentation. Test compounds were dissolved in either distilled water or distilled water plus 0.1 M AMS, and administered by the subcutaneous route in a final volume of 10 ml/Kg. Control animals received 10 ml/Kg of the appropriate vehicle alone. Following a pretreatment period of 20 min., mice were injected intraperitoneally with p-phenylquinone, 2 mg/Kg at 37° C. in a final volume of […]. […] During this period the number of abdominal writhing responses per animal were recorded where writhing consists of an intermittent contraction of the abdomen associated with hind leg extension.
The degree of antinociceptive protection afforded by the test compound was determined as the mean number of writhing responses observed in the treated group (T) expressed as a percentage of the mean number of writhing responses in the control group (C) according to the following formula:
[1-(T/C]×100%=% graded protection

MU opiate receptor = molecular target: T1, MU opiate receptor (Cavia porcellus, UniProt A0ACM8Q262); assay: opiate receptors binding, MU (3H-DAGO, guinea pig brain homogenate)
T1 construct: 3H-DAGO displacement
T1 sequence (A0ACM8Q262 1-400): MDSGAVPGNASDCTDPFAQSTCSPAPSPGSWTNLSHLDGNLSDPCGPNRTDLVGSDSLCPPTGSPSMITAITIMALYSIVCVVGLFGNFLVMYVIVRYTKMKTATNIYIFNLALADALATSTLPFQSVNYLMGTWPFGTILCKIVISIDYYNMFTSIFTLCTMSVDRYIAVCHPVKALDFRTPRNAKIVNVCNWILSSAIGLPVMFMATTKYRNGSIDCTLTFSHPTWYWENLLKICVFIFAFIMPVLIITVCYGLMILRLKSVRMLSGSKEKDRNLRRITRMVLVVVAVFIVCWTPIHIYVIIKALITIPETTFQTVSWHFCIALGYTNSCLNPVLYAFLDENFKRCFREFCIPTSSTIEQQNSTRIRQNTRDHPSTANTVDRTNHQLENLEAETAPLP
Description: Radio receptor binding to μ and K sites is performed on fresh guinea pig brain homogenate prepared according to Kosterlitz.
Whole brain without cerebellum is homogenized in 50 mM, Tris-buffer (pH 7.4 at 0° C.) and centrifuged at 49,000×g×10 min.
The pellet is then resuspended in the same buffer, incubated at 37° C. for 45 min. and centrifuged again. 1.9ml of the final homogenate (1:100 in Tris-pH 7.4, 0° C.) is used for the binding assay.
The filters are then dryed, solubilized in Filtercount and the radioactivity monitored. Non specific binding
is determined in the presence of 10-6M Naloxone.

mice [2] = assay: tail-flick test in mice; assay type: in vivo, mouse (male Charles River, Swiss Strain); settings: subcutaneous, calculated as the free base, 30 min pretreatment; for ED50: Mus musculus, sc, 0.5 h; for MOUSE TAIL-FLICK ED50: 30 min
Description: (B) Tail-flick test in mice
The methodology employed is based on that described by D'Amour and Smith, J. Pharmacol. Exp. Ther. 72, 74/1941.
Male Charles River mice (Swiss Strain), 22-34g body weight were used. Animals were allowed food and water ad libitum and were randomized into groups of 10 prior to experimentation.
Test compounds were dissolved in either distilled water or distilled water plus 0.1 M AMS and administered by the subcutaneous route in a final volume of 10 ml/Kg. Control animals received 10 ml/kg of the appropriate vehicle alone. Following a pretreatment period of 30 min., the mice were again placed under the heat source and the reaction tine re-determined.
Percentage quantal protection was determined as the number of mice in which the reaction time was doubled compared to pretreatment values, expressed as a percentage of the total number of mice in the group.

[3] = read-out: OPIATE RECEPTORS BINDING MU Ki, fresh guinea pig brain homogenate, 25° C., 40 min
[4] = fresh guinea pig brain homogenate, 25° C., 40 min, read-out: OPIATE RECEPTORS BINDING MU Ki

SMILES | ED50 (mice [1]) | Ki (MU opiate receptor; [3]) | ED50 (mice [2]) | MOUSE TAIL-FLICK ED50 (mice [2]) | Ki (MU opiate receptor; [4])
CC1CN(C(=O)Cc2ccc(Cl)c(Cl)c2)C(CN2CCCC2)c2ccccc21 (single isomer, unassigned) [Example 44, (-)-1-(pyrrolidin-1-yl)methyl-2-(3,4-dichlorophenyl)acetyl-4-methyl-1,2,3,4-tetrahydroisoquinoline D(-) tartrate] | 0.013 mg/kg | 56.5 nM | 0.025 mg/kg | – | –
O=C(Cc1ccc(Cl)c(Cl)c1)N1CCc2c(O)cccc2C1CN1CCCC1 (single isomer, unassigned; (-)) [Example 54, (-)-1-(pyrrolidin-1-yl)methyl-2-(3,4-dichlorophenyl)acetyl-5-hydroxy-1,2,3,4-tetrahydroisoquinoline hydrochloride] | 0.0022 mg/kg | – | 0.006 mg/kg | – | –
CC1c2ccccc2C(CN2CCCC2)N(C(=O)Cc2ccc(Cl)c(Cl)c2)C1C (single isomer, unassigned; diastereoisomer b) [Example 46, 1-(pyrrolidin-1-yl)methyl-2-(3,4-dichlorophenyl)acetyl-3,4-dimethyl-1,2,3,4-tetrahydroisoquinoline diastereoisomer B] | 0.011 mg/kg | – | – | 0.048 mg/kg | –
CC1c2ccccc2C(CN2CCCCC2)N(C(=O)Cc2ccc(Cl)c(Cl)c2)C1C (single isomer, unassigned; diastereoisomer b) [Example 49, 1-(piperidin-1-yl)methyl-2-(3,4-dichlorophenyl)acetyl-3,4-dimethyl-1,2,3,4-tetrahydroisoquinoline diastereoisomer B.] | 0.038 mg/kg | – | 0.077 mg/kg | – | –
O=C(Cc1ccc(Cl)c(Cl)c1)N1CC(c2ccccc2)c2ccccc2C1CN1CCCC1 (single isomer, unassigned; diastereoisomer b) [Example 50, 1-(pyrrolidin-1-yl)methyl-2-(3,4-dichlorophenyl)acetyl-4-phenyl-1,2,3,4-tetrahydroisoquinoline hydrochloride monohydrate diastereoisomer B] | – | – | 20 mg/kg | – | –
CC1c2ccccc2C(CN2CCCC2)N(C(=O)Cc2ccc(Cl)c(Cl)c2)C1C (single isomer, unassigned; diastereoisomer c) [Example 47, 1-(pyrrolidin-1-yl)methyl-2-(3,4-dichlorophenyl)acetyl-3,4-dimethyl-1,2,3,4-tetrahydroisoquinoline hydrochloride diastereoisomer C] | – | – | – | 8.9 mg/kg | –
CSc1cccc2c1CCN(C(=O)Cc1ccc(Cl)c(Cl)c1)C2CN1CCCC1 (centres unmarked) [Example 32, 1-(pyrrolidin-1-yl)methyl-2-(3,4-dichlorophenyl)acetyl-5-methylthio-1,2,3,4-tetrahydroisoquinoline hydrochloride] | 0.202 mg/kg | – | 0.365 mg/kg | – | 442 nM
COc1cccc2c1CCN(C(=O)Cc1ccc(C(F)(F)F)cc1)C2CN1CCCC1 (centres unmarked) [Example 33, 1-(pyrrolidin-1-yl)methyl-2-(4-trifluoromethylphenyl)acetyl5-methoxy-1,2,3,4-tetrahydroisoquinoline hydrochloride] | 0.06 mg/kg | – | 0.306 mg/kg | – | 142 nM
O=C(Cc1ccc(C(F)(F)F)cc1)N1CCc2c(O)cccc2C1CN1CCCC1 (centres unmarked) [Example 34, 1-(pyrrolidin-1-yl)methyl-2-(4-trifluoromethylphenyl)acetyl5-hydroxy-1,2,3,4-tetrahydroisoquinoline hydrochloride hemihydrate] | 0.0023 mg/kg | 0.59 nM | 0.011 mg/kg | – | –
COc1ccc2c(c1OC)CCN(C(=O)Cc1ccc(Cl)c(Cl)c1)C2CN1CCCC1 (centres unmarked) [Example 39, 1-(pyrrolidin-1-yl)methyl-2-(3,4-dichlorophenyl)acetyl-5,6-dimethoxy-1,2,3,4-tetrahydroisoquinoline hydrochloride] | – | – | > 1 mg/kg | – | –
CC(=O)Oc1cccc2c1CCN(C(=O)Cc1ccc(Cl)c(Cl)c1)C2CN1CCCC1 (centres unmarked) [Example 52, 1-(pyrrolidin-1-yl)methyl-2-(3,4-dichlorophenyl)acetyl-5-acetoxy-1,2,3,4-tetrahydroisoquinoline hydrochloride] | 0.005 mg/kg | – | 0.024 mg/kg | – | –
